Laboratory results: publication PMC7324617, “Selection and identification of a novel bone-targeting peptide for biomedical imaging of bone” (Scientific Reports, 2020)
Entries after “also recorded” stand apart in the source; their conditions may differ. Where no end group is shown, it is not given here.

Experiments:
[1] = test system: Saos-2 cells; assay: Cytotoxicity assay (WST-1) in Saos-2 cells; assay type: cell-based; details: 1 nM to 100 μM, 24 h, 48 h and 72 h, WST-1, triplicates
Protocol: The biocompatibility of HA-pep3 is important for assessing the feasibility of its in vivo application. Therefore, we performed HA-pep3 cytotoxicity assessment in osteoblastic Saos-2 osteogenic cells for 24 h, 48 h and 72 h (Fig. 6a and Figure S3). The cell viability was measured using various concentrations of HA-pep3 ranging from 1 nM to 100 μM. […] Next, we analyzed HA-pep3 in vivo application feasibility. We used Cy5.5 dye with near-infrared wavelength for in vivo imaging, to minimize tissue adsorption. After Cy5.5 dye labeling, scrambled peptide and HA-pep3 were injected into the tail vein of nude mice. […] The fluorescence intensity in bone was about 3.32 folds higher for Cy5.5-HA-pep3 than for a scrambled sequence (Fig. 6d).
Saos-2 osteosarcoma osteogenic primary cell line was purchased from the Korean cell line bank. Cells were cultured in […] medium with L-glutamine (300 mg/L), 25 mM HEPES, and 25 mM NaHCO3 supplemented with 10% heat-inactivated fetal bovine serum (FBS), 100 U/mL penicillin, and 100 μg/mL streptomycin. The cell lines were cultured at 37 °C and up to 5% CO2 in humidified atmosphere. All reagents and cell culture media were purchased from the WELGENE Company, South Korea. HA-pep3 cytotoxicity was examined using WST-1 assay. […] Finally, the absorbance was measured at 450 nm using a microplate spectrophotometer (Tecan Infinite 200). […]

[2] = Blood analysis for in vivo clearance; set-up: species or system mice; details: blood samples 10 μL at 1, 3, 6 and 12 h after intravenous injection of Cy5.5-HA pep3; fluorescence (IVIS)
Excerpt: We used X-ray function of in vivo imaging machine, IVIS Lumina XRMS and performed X-ray imaging of the mice with Cy5.5-HA pep3. With x-ray images, we could observe the high fluorescence intensity at spine (Figure S5a). In additions, we compared its biodistribution in vivo to our Cy5.5-HA pep3 and E7 positive peptide after intravenous injection. […] In addition, we performed blood analysis to determine clearance of our peptide in vivo (Figure S6).
All animal studies were approved by the Institutional Review Board of the Catholic University of Korea (approval No. CUMC-2019-0003-01). BALB/c nude mice (4 weeks old, OrientBio, Seongnam city, Korea) and wild type C3H/HeN mice were used for in vivo imaging. Cy5.5-scramble peptide or Cy5.5-HAp peptide (5 mg/kg of peptide in 100 µL physiological saline, n = 3) were administered to the mice by a tail vein injection. […] All images were analyzed with Living Image 4.5 software (PerkinElmer Inc., Massachusetts, USA). […] The fluorescence intensity of […] in samples was measured by IVIS Lumina XRMS.
Figure S6. […] (a) Time-dependent fluorescence images of blood sample obtained from mice tail at 1, 2, 3, 6 and 12h after intravenous injection of Cy5.5-HA pep3. (b) Average fluorescence intensity graph of the blood samples in (a).

clearance from blood [2]: disappeared in blood after 12 h
Sequence: KNFQSRSH [HA-pep3]
cytotoxicity (cell viability) [1]: no cytotoxicity; also recorded: did not show any cytotoxicity up to 100 μM
